Test results published in US9234885B2 (priority 2011, dated 2016).
Entries after “also recorded” stand apart in the source; their conditions may differ.

How the values were obtained:
[1] = system: intracellular cholesterol; format: cell-based, grivet monkey
VSV [2] = format: cell-based, vesicular stomatitis virus
VSV [3] = format: cell-based, vesicular stomatitis virus; remark: listed apart in the source
rVSV-GP-EboV [4] = format: cell-based, Ebola virus
MARV-Ci67 = format: cell-based, Marburg virus
EBOV-Zaire 1995 = format: cell-based, Ebola virus
[5] = system: human peripheral blood monocyte-derived dendritic cells and umbilical-vein endothelial cells (HUVEC)
rVSV-GP-EboV [6] = format: cell-based, Ebola virus; remark: listed apart in the source

CCN(CC)CCO[C@H]1CC[C@@]2(C)C(=CC[C@@H]3[C@@H]2CC[C@]2(C)C(=O)CC[C@@H]32)C1 [U18666A, 3-β-[2-(diethylamino)ethoxy]androst-5-en-17-one]
time until significant intracellular accumulation of cholesterol is observed [1]: > 4 h
viral infection by VSV (VSV [2]): but not VSV
VSV M staining pattern after VSV (diffuse = fusion, punctate = block) (VSV [3]): Diffuse M staining
time after addition to cells until viral infection is inhibited (rVSV-GP-EboV [4]): < 10 min
viral infection mediated by EboV GP (rVSV-GP-EboV [4]): potently inhibited
infection by authentic MarV, percentage of infected cells by immunostaining (MARV-Ci67): greatly reduced; also recorded: blocks
viral yield, authentic MarV (MARV-Ci67): Stark reductions
infection by authentic EboV, percentage of infected cells by immunostaining (EBOV-Zaire 1995): greatly reduced; also recorded: blocks
viral yield, authentic EboV (EBOV-Zaire 1995): Stark reductions
cell number or morphology [5]: without affecting
VSV M staining pattern after rVSV-GP-EboV (diffuse = fusion, punctate = block) (rVSV-GP-EboV [6]): only punctate M staining

CN(C)CCCN1c2ccccc2CCc2ccccc21 [imipramine]
viral infection by VSV (VSV [2]): but not VSV
viral infection mediated by EboV GP (rVSV-GP-EboV [4]): potently inhibited
infection by authentic MarV, percentage of infected cells by immunostaining (MARV-Ci67): blocks
viral yield, authentic MarV (MARV-Ci67): Stark reductions
infection by authentic EboV, percentage of infected cells by immunostaining (EBOV-Zaire 1995): blocks
viral yield, authentic EboV (EBOV-Zaire 1995): Stark reductions

ammonium chloride [NH4Cl]
VSV M staining pattern after rVSV-GP-EboV (diffuse = fusion, punctate = block) (rVSV-GP-EboV [6]): discrete punctuate of M staining

bafilomycin A1 [bafA1]
VSV M staining pattern after rVSV-GP-EboV (diffuse = fusion, punctate = block) (rVSV-GP-EboV [6]): discrete punctuate of M staining
